Data: patent US9101642B2, “Ticagrelor co-crystal” (AstraZeneca AB, priority 2011, dated 2015)

Experiments:
[1] = Micro-dissolution in Simulated Gastric Fluid (SGF); format: physicochemical; conditions: 9 mg in 25 ml, mean of n = 2
Experimental: (§1) Micro-dissolution investigations were performed on 9 mg of a sample of Compound A:acetyl salicylic acid co-crystal (prepared as described in Example 4) or Compound A Form II in both 25 ml of (i) Fasted intestinal fluid (Fassif) without micelle forming components (termed blank Fassif) and (ii) of Simulated Gastric Fluid (SGF). The samples were magnetically stirred and aliquots were taken at appropriate time intervals, centrifuged and the supernatant analysed by HPLC and the concentration of Compound A measured as a function of time.
Simulated Gastric Fluid (SGF) media was prepared by adding 131.5 ml 1M HCl to 4 g NaCl and the resulting solution made up to 2 Liters with milli-Q water (de-ionised water).

[2] = Micro-dissolution in blank Fassif (fasted intestinal fluid without micelle forming components); format: physicochemical; conditions: blank Fassif pH 6.5, 9 mg in 25 ml, mean of n = 2
Experimental: as §1
Fasted intestinal fluid without micelle forming components (blank Fassif) media was prepared from 0.348 g NaOH pellets, 3.954 g NaH2PO4.H2O and 6.186 g NaCl in 1 L milli-Q water. The pH was then adjusted to pH 6.5 with 1N NaOH or 1N HCl.

CCCSc1nc(N[C@@H]2C[C@H]2c2ccc(F)c(F)c2)c2nnn([C@@H]3C[C@H](OCCO)[C@@H](O)[C@H]3O)c2n1 (relative stereo) [Compound A Form II, {1S-[1α,2α, 3β(1S*,2R*),5β]}-3-(7-{[2-(3,4-difluorophenyl)cyclopropyl]amino}-5-(propylthio)-3H-1,2,3-triazolo[4,5-d]pyrimidin-3-yl)-5-(2-hydroxyethoxy)cyclopentane-1,2-diol]
Concentration of Compound A ([1]; time 0 mins): 0 ng/mL
Concentration of Compound A ([1]; time 10 mins): 7820 ng/mL
Concentration of Compound A ([1]; time 20 mins): 8100 ng/mL
Concentration of Compound A ([1]; time 30 mins): 8520 ng/mL
Concentration of Compound A ([1]; time 60 mins): 8100 ng/mL
Concentration of Compound A ([1]; time 240 mins): 8450 ng/mL
Concentration of Compound A ([2]; time 0 mins): 0 ng/mL
Concentration of Compound A ([2]; time 10 mins): 2950 ng/mL
Concentration of Compound A ([2]; time 20 mins): 3240 ng/mL
Concentration of Compound A ([2]; time 30 mins): 3310 ng/mL
Concentration of Compound A ([2]; time 60 mins): 3510 ng/mL
Concentration of Compound A ([2]; time 240 mins): 3370 ng/mL
